# Assays:
# Assay type in all cases: cell-based
# [1] = target: T1, human EDG1 (S1PR1) receptor (Homo sapiens, UniProt P21453); assay: Aequorin assay, agonist potency, CHO-A21-Edg1#17 cells; conditions: agonist mode, aequorin luminescence; read-out: S1P1 EC50
# T1 construct: expressed in transfected cells; host or cells: CHO-A21-Edg1#17 (CHO clone co-expressing mitochondrial aequorin and chimaeric Gaqi5)
# Method: (§1) Agonistic activity was measured as described below.
# (§2) Cell clone CHO-A21-Edg1#17 carries the transgenes human EDG1 (S1PR1) receptor (Accession number NP_001391.2), mitochondrially targeted Aequorin (active part corresponds to accession number 1SL8_A) and chimaeric Gaqi5=Gaq modified with the 5 C-terminal amino-acids replaced with those of the Gai protein (DCGLF). CHO-A2-S1P3 Mix is a cell pool ectopically expressing human EDG3 (S1PR3) receptor (Accession number NP_005217.2) mitochondrially targeted Aequorin (active part has a sequence similar to accession number AY601106.1) and GNA16 (Accession number NP_002059.3). Cell clone CHO-A21-EDG8#12 carries the transgenes human EDG8 (S1PR5) receptor (Acession number NP_110387.1), mitochondrially expressed Aequorin (active part corresponds to accession number 1SL8_A) and chimaeric Gaqi5 (Gaq modified to present the 5 last amino-acids of the Gai protein “DCGLF”; see above). Cells are grown to mid-log phase in culture medium (HAM's F12, 10% FBS, 100 IU/mL penicillin, 100 μg/mL streptomycin, 250 μg/mL Zeocin, 400 μg/mL G418). 18 hours prior to frozen cells preparation, the medium is changed to remove the antibiotics.
# (§3) 18 hours prior to the test, vials of frozen cells are quickly thawed in a 37° C. water bath, cells are recovered by centrifugation and resuspended in assay buffer (DMEM/HAM's F12 with HEPES, without phenol red+0.1% fatty acid-free BSA). Cells are gently agitated in suspension overnight at RT in presence of 5 μM of Coelenterazine h (Molecular Probes). On the day of the test, cells are diluted to their final working concentrations in assay buffer and agitated in suspension for 1 h at RT. Cells are then placed in the luminescence reader (Hamamatsu Functional Drug Screening System 6000, FDSS6000). During cells incubation, compounds are prepared in 100% DMSO, and subsequently diluted in assay buffer. Compounds are then dispensed in the assay plate (black, clear-bottom, 384-well plate). After binding of agonists to the human S1P receptor the intracellular calcium concentration increases and binding of calcium to the Aequorin/Coelenterazine complex leads to an oxidation reaction of coelenterazine, which results in the production of Aequorin, coelenteramide, CO2 and light (Dmax 469 nm). The luminescent response is dependent on the agonist concentration. For agonist testing, 30 μL of cell suspension are injected on 30 μL of test compound or reference agonist in the assay plate. The resulting emission of light is recorded for 90 seconds using the FDSS6000. Dose response curves with the reference compounds are performed before testing the compounds. S1P is the reference agonist and JTE-013 the reference antagonist for S1P2.
# (§4) Luminescence data are integrated over the reading interval for agonist and antagonist modes. To standardize the emission of recorded light (determination of the “100% signal”) across plates and across different experiments, some of the wells contain 100 μM digitonin or a saturating concentration of ATP (20 μM). Plates also contain the reference agonist at a concentration equivalent to the EC80 obtained during the test validation and the EC100. Dose-response data from test compounds were analyzed with XLfit (IDBS) software using nonlinear regression applied to a sigmoidal dose-response model and the following equation: […]
# [2] = target: T2, human EDG8 (S1PR5) receptor (Homo sapiens, UniProt Q9H228); assay: Aequorin assay, agonist potency, CHO-A21-EDG8#12 cells; conditions: agonist mode, aequorin luminescence; read-out: S1P5 EC50 range #
# T2 construct: carries the transgenes human EDG8 (S1PR5) receptor (Acession number NP_110387.1); expressed in transfected cells; host or cells: CHO-A21-EDG8#12 (CHO clone co-expressing mitochondrial aequorin and chimaeric Gaqi5)
# T2 sequence (Q9H228 whole entry): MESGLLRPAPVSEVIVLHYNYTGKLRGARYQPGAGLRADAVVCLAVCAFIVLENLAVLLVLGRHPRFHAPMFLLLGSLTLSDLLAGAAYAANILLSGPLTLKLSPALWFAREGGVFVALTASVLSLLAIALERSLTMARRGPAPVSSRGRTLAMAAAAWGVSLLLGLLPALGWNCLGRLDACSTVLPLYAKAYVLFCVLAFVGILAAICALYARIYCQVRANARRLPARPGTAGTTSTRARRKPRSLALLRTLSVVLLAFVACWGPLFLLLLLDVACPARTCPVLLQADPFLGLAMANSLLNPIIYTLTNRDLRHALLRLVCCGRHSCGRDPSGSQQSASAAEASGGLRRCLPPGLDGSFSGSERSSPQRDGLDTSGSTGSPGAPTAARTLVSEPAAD
# Method: as §1, §2, §3, §4
# [3] = target: T3, S1P4 (Homo sapiens, UniProt O95977); assay: Aequorin assay, agonist potency, S1P4; conditions: agonist mode, aequorin luminescence
# T3 sequence (O95977 1-384): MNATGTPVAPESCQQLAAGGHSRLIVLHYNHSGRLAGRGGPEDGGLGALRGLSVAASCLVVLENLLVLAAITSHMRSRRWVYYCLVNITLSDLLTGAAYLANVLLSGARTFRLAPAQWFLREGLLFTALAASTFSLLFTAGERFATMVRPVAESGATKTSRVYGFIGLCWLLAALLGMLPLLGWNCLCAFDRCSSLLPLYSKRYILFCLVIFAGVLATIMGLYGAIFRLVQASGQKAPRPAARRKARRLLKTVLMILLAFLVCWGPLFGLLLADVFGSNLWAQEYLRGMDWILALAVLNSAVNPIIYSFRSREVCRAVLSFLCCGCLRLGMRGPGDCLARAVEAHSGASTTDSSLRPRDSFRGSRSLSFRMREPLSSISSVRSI
# Method: as §1, §3, §4
# T1 sequence (P21453 whole entry): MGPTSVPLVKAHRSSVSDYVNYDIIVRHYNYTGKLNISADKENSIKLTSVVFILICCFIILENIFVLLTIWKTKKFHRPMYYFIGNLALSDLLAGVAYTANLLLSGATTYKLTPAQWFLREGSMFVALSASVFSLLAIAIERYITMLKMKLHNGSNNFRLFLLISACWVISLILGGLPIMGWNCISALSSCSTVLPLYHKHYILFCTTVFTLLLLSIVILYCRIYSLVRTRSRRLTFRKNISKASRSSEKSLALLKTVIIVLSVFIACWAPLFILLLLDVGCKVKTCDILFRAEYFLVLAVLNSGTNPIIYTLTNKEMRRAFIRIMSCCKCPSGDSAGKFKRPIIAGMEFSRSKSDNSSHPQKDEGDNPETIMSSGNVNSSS
SMILES,EC50 [1] [nM],EC50 [2] [nM],EC50 [3] [nM]
"O=C(O)CN1CC2(Cc3ccc(OC4CCc5cccc(Cl)c54)cc3C2)C1 (stereo not drawn) [Example 67, 2-(5′-((7-chloro-2,3-dihydro-1H-inden-1-yl)oxy)-1′,3′-dihydrospiro[azetidine-3,2′-inden]-1-yl)acetic acid]",> 1000,≤ 10,< 1000
"O=C(O)CN1CC2(Cc3ccc(OC4CCc5cc(Br)cc(F)c54)cc3C2)C1 (stereo not drawn) [Example 68, 2-(5′-((5-bromo-7-fluoro-2,3-dihydro-1H-inden-1-yl)oxy)-1′,3′-dihydrospiro[azetidine-3,2′-inden]-1-yl)acetic acid]",> 1000,≤ 10,< 1000
"O=C(O)CN1CC2(Cc3ccc(OC4CCc5cc(Cl)cc(Cl)c54)cc3C2)C1 (stereo not drawn) [Example 69, 2-(5′-((5,7-dichloro-2,3-dihydro-1H-inden-1-yl)oxy)-1′,3′-dihydrospiro[azetidine-3,2′-inden]-1-yl)acetic acid]",> 1000,≤ 10,< 1000
"O=C(O)CN1CC2(Cc3ccc(OCCOc4ccccc4)cc3C2)C1 [Example 70, 2-(5′-(2-phenoxyethoxy)-1′,3′-dihydrospiro[azetidine-3,2′-inden]-1-yl)acetic acid]",> 1000,100 to 1000,< 1000
"O=C(O)CN1CC2(Cc3ccc(OCCOc4ccc(Cl)cc4)cc3C2)C1 [Example 71, 2-(5′-(2-(4-chlorophenoxy)ethoxy)-1′,3′-dihydrospiro[azetidine-3,2′-inden]-1-yl)acetic acid]",> 1000,1000 to 10000,> 1000
"O=C(O)CN1CC2(Cc3ccc(OCc4cccc5c4OCC5)cc3C2)C1 [Example 72, 2-(5′-((2,3-dihydrobenzofuran-7-yl)methoxy)-1′,3′-dihydrospiro[azetidine-3,2′-inden]-1-yl)acetic acid]",> 1000,100 to 1000,< 1000
"O=C(O)CN1CC2(Cc3ccc(OC4Cc5ccccc5C4)cc3C2)C1 [Example 73, 2-(5′-((2,3-dihydro-1H-inden-2-yl)oxy)-1′,3′-dihydrospiro[azetidine-3,2′-inden]-1-yl)acetic acid]",> 1000,100 to 1000,< 1000
"O=C(O)CN1CC2(Cc3ccc(OCc4cccc5c4CCC5)cc3C2)C1 [Example 74, 2-(5′-((2,3-dihydro-1H-inden-4-yl)methoxy)-1′,3′-dihydrospiro[azetidine-3,2′-inden]-1-yl)acetic acid]",> 1000,≤ 10,< 1000
"CC1CCC(C#Cc2ccc3c(c2)CC2(C3)CN(CC(=O)O)C2)CC1 (stereo not drawn) [Example 76, 2-(5′-((4-methylcyclohexyl)ethynyl)-1′,3′-dihydrospiro[azetidine-3,2′-inden]-1-yl)acetic acid]",> 1000,≤ 10,< 1000
"O=C(O)CN1CC2(Cc3ccc(C#Cc4ccccc4Cl)cc3C2)C1 [Example 80, 2-(5′-((2-chlorophenyl)ethynyl)-1′,3′-dihydrospiro[azetidine-3,2′-inden]-1-yl)acetic acid]",> 1000,≤ 10,< 1000
"O=C(O)CN1CC2(Cc3ccc(C#Cc4ccccc4)cc3C2)C1 [Example 82, 2-(5′-(phenylethynyl)-1′,3′-dihydrospiro[azetidine-3,2′-inden]-1-yl)acetic acid]",> 1000,10 to 100,< 1000
"O=C(O)C1CC(N2CC3(Cc4ccc(OCc5cccc6c5CCC6)cc4C3)C2)C1 (stereo not drawn) [Example 83, 3-(5′-((2,3-dihydro-1H-inden-4-yl)methoxy)-1′,3′-dihydrospiro[azetidine-3,2′-inden]-1-yl)cyclobutanecarboxylic acid]",> 1000,10 to 100,< 1000

# Now from value to compound:
EC50 [1] [nM],EC50 [2] [nM],EC50 [3] [nM],SMILES
< 1000,100 to 1000,< 1000,"O=C(O)C1(CN2CC3(Cc4ccc(OCCc5cccc(Cl)c5)cc4C3)C2)CC1 [Example 57, 1-((5′-(3-chlorophenethoxy)-1′,3′-dihydrospiro[azetidine-3,2′-inden]-1-yl)methyl)cyclopropanecarboxylic acid]"
> 1000,100 to 1000,< 1000,"O=C(O)C1(CN2CC3(Cc4ccc(OCCc5ccccc5Cl)cc4C3)C2)CC1 [Example 58, 1-((5′-(2-chlorophenethoxy)-1′,3′-dihydrospiro[azetidine-3,2′-inden]-1-yl)methyl)cyclopropanecarboxylic acid]"
> 1000,1000 to 10000,> 1000,"O=C(O)CN1CC2(Cc3ccc(OCCc4ccccc4)cc3C2)C1 [Example 60, 2-(5′-phenethoxy-1′,3′-dihydrospiro[azetidine-3,2′-inden]-1-yl)acetic acid]"
> 1000,10 to 100,< 1000,"O=C(O)CN1CC2(Cc3ccc(OCCc4ccccc4Cl)cc3C2)C1 [Example 61, 2-(5′-(2-chlorophenethoxy)-1′,3′-dihydrospiro[azetidine-3,2′-inden]-1-yl)acetic acid]"
> 1000,10 to 100,< 1000,"CCc1cccc(F)c1COc1ccc2c(c1)CC1(C2)CN(CC(C)CC(=O)O)C1 (stereo not drawn) [Example 65, 4-(5′-((2-ethyl-6-fluorobenzyl)oxy)-1′,3′-dihydrospiro[azetidine-3,2′-inden]-1-yl)-3-methylbutanoic acid]"
> 1000,≤ 10,< 1000,"O=C(O)CN1CC2(Cc3ccc(OC4CCc5ccccc54)cc3C2)C1 (stereo not drawn) [Example 66, 2-(5′-((2,3-dihydro-1H-inden-1-yl)oxy)-1′,3′-dihydrospiro[azetidine-3,2′-inden]-1-yl)acetic acid]"
< 1000,≤ 10,> 1000,"CC(C)Oc1ccc(C#Cc2ccc3c(c2)CC2(C3)CN(CC(=O)O)C2)cn1 [Example 75, 2-(5′-((6-isopropoxypyridin-3-yl)ethynyl)-1′,3′-dihydrospiro[azetidine-3,2′-inden]-1-yl)acetic acid]"
< 1000,≤ 10,< 1000,"CCOc1ccc(C#Cc2ccc3c(c2)CC2(C3)CN(CC(=O)O)C2)cc1 [Example 77, 2-(5′-((4-ethoxyphenyl)ethynyl)-1′,3′-dihydrospiro[azetidine-3,2′-inden]-1-yl)acetic acid]"
< 1000,≤ 10,< 1000,"O=C(O)CN1CC2(Cc3ccc(C#Cc4ccc(OC5CCCC5)nc4)cc3C2)C1 [Example 78, 2-(5′-((6-(cyclopentyloxy)pyridin-3-yl)ethynyl)-1′,3′-dihydrospiro[azetidine-3,2′-inden]-1-yl)acetic acid]"
< 1000,≤ 10,< 1000,"CC(Oc1ccc(C#Cc2ccc3c(c2)CC2(C3)CN(CC(=O)O)C2)cn1)C(F)(F)F (stereo not drawn) [Example 79, 2-(5′-((6-((1,1,1-trifluoropropan-2-yl)oxy)pyridin-3-yl)ethynyl)-1′,3′-dihydrospiro[azetidine-3,2′-inden]-1-yl)acetic acid]"

# From patent US20200055817A1 (AbbVie Deutschland GmbH & Co. KG, priority 2016, published 2020)
